The source of these data is patent US20240317739A1, “NOVEL UREA DERIVATIVE COMPOUND AS RON INHIBITOR” (LG CHEM, LTD., priority 2021, published 2024).

Assay [1] has as its target cMET (Homo sapiens, UniProt P08581). Put plainly: Evaluation of inhibitory activity against MET (TR-FRET). The format is biochemical. To be noted: TR-FRET kinase assay, cMET protein. How it is done: In addition, in order to measure the enzyme activity inhibition for cMET, the evaluation was performed in the same manner as the enzyme activity inhibition measurement experiment for the RON.
Specifically, the compound was prepared to a concentration of 1 mM with 100% DMSO and was diluted 10 times in a stepwise manner through 3-fold dilution. 2 ul of the compound diluted in a stepwise manner was added to a 96-well-plate containing 48 ul of a 1× kinase reaction buffer (50 mM HEPES (pH 7.4), 0.05% BSA, 0.005% Tween-20, 1 mM DTT, 0.5 mM MnCl2, 20 mM MgCl2).
The cMET protein was diluted to a concentration of 263 nM with a cMET storage buffer (50 mM Tris-HCl (pH 7.5), 150 mM NaCl, 0.05% Brij35, 1 mM DTT, 10% Glycerol), and then diluted again to a concentration of 2 nM with a 1× kinase reaction buffer. As a substrate cocktail, a MET-specific substrate mixture (5 uM TK peptide, […]) at a concentration 2 times the final reaction concentration.
(§1) Thereafter, a 384-well-plate was prepared, and 2.5 μl of each of the diluted compounds of Examples was added to a corresponding well of experimental group wells, and 2.5 μl of a 4% DMSO solution was dispensed into high control wells and low control wells.
(§2) Thereafter, 2.5 μL of 2 nM cMET was dispensed into the high control wells and the experimental group wells, and 2.5 μL of a 1× kinase reaction buffer was added to the low control wells, and the RON and the reaction buffer were centrifuged at room temperature for 40 seconds at 1000 RPM, and then incubated at room temperature for 20 to 30 minutes. Then, 5 uL of a substrate cocktail (2×) was dispensed into all wells, centrifuged at room temperature for 40 seconds at 1000 RPM, and then incubated at room temperature for 60 minutes. Thereafter, 5 uL of 90 mM EDTA was added to all wells to terminate the reaction, and then incubated again at room temperature for 5 minutes. Thereafter, 5 uL of a 4× phosphotyrosine antibody (Perkin Elmer) containing europium was added to all wells, and then incubated at room temperature for 60 minutes. After the incubation, the 384-well-plate was read with a Vison plate reader. At this time, the excitation wavelength was 340 nm, and the emission wavelength was 620 nm and 665 nm. The 1050 value of the compound of each Example was derived using the GraphPd Prism7 program.

The target of assay [2] is RON (Homo sapiens, UniProt Q04912). Put plainly: Evaluation of inhibitory activity against RON (TR-FRET). The format is biochemical. To be noted: TR-FRET kinase assay, RON protein. The method, then:
In order to measure the inhibitory activity of each of the compounds of Examples against RON, the IC50 of each of the compounds was measured using a Time-Resolved Fluorescence Energy Transfer Chemistry (TR-FRET).
Specifically, the compound was prepared to a concentration of 1 mM with 100% DMSO and was diluted 10 times in a stepwise manner through 3-fold dilution. 2 ul of the compound diluted in a stepwise manner was added to a 96-well-plate containing 48 ul of a 1×kinase reaction buffer (50 mM HEPES (pH 7.4), 0.01% Tween-20, 5 mM DTT, 0.5 mM Na3VO4, 2 mM EGTA, 10 mM MgCl2).
The RON protein was diluted to a concentration of 49.3 nM with an RON storage buffer (50 mM Tris-HCl (pH 7.5), 150 mM NaCl, 0.5 mM EDTA, 0.02% Triton X-100), and then diluted again to a concentration of 0.4 nM with a 1×kinase reaction buffer. As a substrate cocktail, a RON-specific substrate mixture (40 uM ULight-labeled Poly GT, 100 nM ATP) at a concentration 2 times the final reaction concentration.
as §1
as §2, with “of 0.4” for “of 2”, “nM RON” for “nM cMET”, “of 30” for “of 90”, “The IC50” for “The 1050”

Chain of RON (Q04912 25-1400, species assumed): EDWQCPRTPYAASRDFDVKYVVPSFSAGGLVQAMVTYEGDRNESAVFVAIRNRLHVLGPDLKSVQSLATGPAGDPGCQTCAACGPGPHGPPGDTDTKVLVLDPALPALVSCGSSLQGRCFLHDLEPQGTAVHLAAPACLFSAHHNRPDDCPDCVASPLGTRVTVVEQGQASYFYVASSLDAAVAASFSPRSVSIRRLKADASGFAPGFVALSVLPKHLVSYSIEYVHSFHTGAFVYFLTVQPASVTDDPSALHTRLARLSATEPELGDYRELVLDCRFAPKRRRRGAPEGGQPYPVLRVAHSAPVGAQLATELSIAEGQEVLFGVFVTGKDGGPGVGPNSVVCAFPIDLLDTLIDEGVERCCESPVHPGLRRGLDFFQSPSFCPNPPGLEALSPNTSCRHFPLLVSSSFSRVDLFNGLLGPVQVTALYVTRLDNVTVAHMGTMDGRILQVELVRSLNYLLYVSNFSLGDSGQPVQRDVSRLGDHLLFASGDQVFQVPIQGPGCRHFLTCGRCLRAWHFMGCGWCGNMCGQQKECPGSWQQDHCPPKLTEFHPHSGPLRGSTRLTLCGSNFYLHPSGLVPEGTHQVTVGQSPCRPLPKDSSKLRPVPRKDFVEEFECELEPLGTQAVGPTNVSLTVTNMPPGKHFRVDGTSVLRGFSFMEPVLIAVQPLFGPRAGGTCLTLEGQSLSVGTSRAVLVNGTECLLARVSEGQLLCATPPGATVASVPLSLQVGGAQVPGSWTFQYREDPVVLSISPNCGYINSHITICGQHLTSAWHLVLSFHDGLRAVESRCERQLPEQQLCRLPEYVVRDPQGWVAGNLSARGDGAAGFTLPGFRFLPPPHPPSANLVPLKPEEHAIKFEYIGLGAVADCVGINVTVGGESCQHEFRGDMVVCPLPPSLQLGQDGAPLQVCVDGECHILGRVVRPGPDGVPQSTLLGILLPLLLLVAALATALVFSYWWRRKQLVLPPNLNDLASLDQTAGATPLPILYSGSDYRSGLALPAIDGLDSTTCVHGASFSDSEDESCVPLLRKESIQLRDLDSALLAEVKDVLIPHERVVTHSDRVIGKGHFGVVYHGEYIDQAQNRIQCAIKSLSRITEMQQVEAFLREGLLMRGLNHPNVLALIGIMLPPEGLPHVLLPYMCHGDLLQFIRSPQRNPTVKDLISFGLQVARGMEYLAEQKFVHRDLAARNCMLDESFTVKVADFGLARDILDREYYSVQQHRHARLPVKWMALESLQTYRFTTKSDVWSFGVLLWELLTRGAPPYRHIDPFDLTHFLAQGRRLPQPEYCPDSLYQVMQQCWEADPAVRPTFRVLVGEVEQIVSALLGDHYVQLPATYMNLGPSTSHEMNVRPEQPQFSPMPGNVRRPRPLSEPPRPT
Chain of cMET (P08581 25-1390): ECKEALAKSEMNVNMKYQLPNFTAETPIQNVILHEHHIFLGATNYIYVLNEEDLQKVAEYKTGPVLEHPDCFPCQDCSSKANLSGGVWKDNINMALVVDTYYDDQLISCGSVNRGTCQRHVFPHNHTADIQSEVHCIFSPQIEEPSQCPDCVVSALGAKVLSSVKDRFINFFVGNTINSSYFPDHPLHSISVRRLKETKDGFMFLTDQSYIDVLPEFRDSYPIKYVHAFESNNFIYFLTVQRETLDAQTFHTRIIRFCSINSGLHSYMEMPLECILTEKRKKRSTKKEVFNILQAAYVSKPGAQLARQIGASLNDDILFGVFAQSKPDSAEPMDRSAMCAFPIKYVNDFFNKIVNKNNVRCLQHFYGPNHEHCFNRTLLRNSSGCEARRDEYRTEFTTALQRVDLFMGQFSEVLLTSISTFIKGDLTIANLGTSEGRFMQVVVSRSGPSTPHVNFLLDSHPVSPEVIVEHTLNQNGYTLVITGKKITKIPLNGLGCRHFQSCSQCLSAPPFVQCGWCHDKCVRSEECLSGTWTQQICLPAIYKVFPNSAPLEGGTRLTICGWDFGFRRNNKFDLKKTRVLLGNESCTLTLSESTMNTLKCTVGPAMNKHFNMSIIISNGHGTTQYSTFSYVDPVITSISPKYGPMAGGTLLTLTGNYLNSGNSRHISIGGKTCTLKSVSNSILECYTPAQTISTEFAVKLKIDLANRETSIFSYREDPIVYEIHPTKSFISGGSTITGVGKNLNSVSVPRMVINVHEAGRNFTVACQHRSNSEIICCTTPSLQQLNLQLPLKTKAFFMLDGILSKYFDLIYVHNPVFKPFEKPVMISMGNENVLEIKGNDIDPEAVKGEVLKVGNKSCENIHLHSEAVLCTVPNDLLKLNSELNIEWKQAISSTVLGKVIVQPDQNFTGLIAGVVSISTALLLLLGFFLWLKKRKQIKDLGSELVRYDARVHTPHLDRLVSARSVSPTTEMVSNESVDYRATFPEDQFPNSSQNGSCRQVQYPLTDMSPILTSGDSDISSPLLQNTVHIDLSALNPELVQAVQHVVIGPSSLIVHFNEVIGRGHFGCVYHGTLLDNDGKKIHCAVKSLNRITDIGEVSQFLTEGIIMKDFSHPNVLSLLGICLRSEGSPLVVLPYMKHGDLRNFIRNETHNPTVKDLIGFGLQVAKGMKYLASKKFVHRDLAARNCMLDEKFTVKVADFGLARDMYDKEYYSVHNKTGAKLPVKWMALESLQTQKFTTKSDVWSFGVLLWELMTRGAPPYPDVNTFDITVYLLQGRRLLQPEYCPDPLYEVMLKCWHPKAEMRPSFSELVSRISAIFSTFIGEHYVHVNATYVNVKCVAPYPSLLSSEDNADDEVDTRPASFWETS

For `COc1cccnc1-n1ncc(C(=O)Nc2ccc(Oc3ccnc4[nH]c(=O)n(C(C)C)c34)c(F)c2)c1C(F)(F)F` [Example 28, N-(3-fluoro-4-((1-isopropyl-2-oxo-2,3-dihydro-1H-imidazo[4,5-b]pyridine-7-yl)oxy)phenyl)-1-(3-methoxypyridine-2-yl)-5-(trifluoromethyl)-1H-pyrazole-4-carboxamide], the IC50 in assay [1] was 500 to 5000 nM; in assay [2], under 50 nM.
As to `Cc1cccnc1-n1ncc(C(=O)Nc2ccc(Oc3ccnc4[nH]c(=O)n(C(C)C)c34)c(F)c2)c1C(F)(F)F` [Example 8, N-(3-fluoro-4-((1-isopropyl-2-oxo-2,3-dihydro-1H-imidazo[4,5-b]pyridine-7-yl)oxy)phenyl)-1-(3-methylpyridine-2-yl)-5-(trifluoromethyl)-1H-pyrazole-4-carboxamide], the IC50 in assay [1] was 500 to 5000 nM; in assay [2] it was under 50 nM.
Take `Cc1ccnc(-n2ncc(C(=O)Nc3ccc(Oc4ccnc5[nH]c(=O)n(C(C)C)c45)c(F)c3)c2C(F)(F)F)c1` [Example 14, N-(3-fluoro-4-((1-isopropyl-2-oxo-2,3-dihydro-1H-imidazo[4,5-b]pyridine-7-yl)oxy)phenyl)-1-(4-methylpyridine-2-yl)-5-(trifluoromethyl)-1H-pyrazole-4-carboxamide]: the 50% inhibitory concentration (IC50) in assay [1] is over 5000 nM; in assay [2], under 50 nM.
On the same counts, the results for `CN1CCC(n2c(=O)[nH]c3nccc(Oc4ccc(NC(=O)c5cnn(-c6ncccc6F)c5C(F)(F)F)cc4F)c32)CC1` [Example 41, N-(3-fluoro-4-((1-(1-methylpiperidine-4-yl)-2-oxo-2,3-dihydro-1H-imidazo[4,5-b]pyridine-7-yl)oxy)phenyl)-1-(3-fluoropyridine-2-yl)-5-(trifluoromethyl)-1H-pyrazole-4-carboxamide] are over 5000 nM and under 50 nM.
On to `CC(C)n1c(=O)[nH]c2nccc(Oc3ccc(NC(=O)c4cnn(-c5ccc(F)cn5)c4C(F)(F)F)cc3F)c21` [Example 21, N-(3-fluoro-4-((1-isopropyl-2-oxo-2,3-dihydro-1H-imidazo[4,5-b]pyridine-7-yl)oxy)phenyl)-1-(5-fluoropyridine-2-yl)-5-(trifluoromethyl)-1H-pyrazole-4-carboxamide], for which the concentration for half-maximal inhibition (IC50) in assay [1] is over 5000 nM; in assay [2] it was under 50 nM.
On the same counts, the results for `COc1ccc(-n2ncc(C(=O)Nc3ccc(Oc4ccnc5[nH]c(=O)n(C(C)C)c45)c(F)c3)c2C(F)(F)F)nc1` [Example 34, N-(3-fluoro-4-((1-isopropyl-2-oxo-2,3-dihydro-1H-imidazo[4,5-b]pyridine-7-yl)oxy)phenyl)-1-(5-methoxypyridine-2-yl)-5-(trifluoromethyl)-1H-pyrazole-4-carboxamide] are over 5000 nM and 50 to 500 nM.
On the same counts, the results for `CC(C)n1c(=O)[nH]c2nccc(Oc3ccc(NC(=O)c4cnn(-c5cc(C6CC6)ccn5)c4C(F)(F)F)cc3F)c21` [Example 31, 1-(4-cyclopropylpyridine-2-yl)-N-(3-fluoro-4-((1-isopropyl-2-oxo-2,3-dihydro-1H-imidazo[4,5-b]pyridine-7-yl)oxy)phenyl)-5-(trifluoromethyl)-1H-pyrazole-4-carboxamide] are 500 to 5000 nM and 50 to 500 nM.
On the same counts, the results for `O=C(Nc1ccc(Oc2ccnc3[nH]c(=O)n(C4CCOC4)c23)c(F)c1)c1cnn(-c2ncccc2F)c1C(F)(F)F` (stereo not drawn) [Example 40, N-(3-fluoro-4-((2-oxo-1-(tetrahydrofuran-3-yl)-2,3-dihydro-1H-imidazo[4,5-b]pyridine-7-yl)oxy)phenyl)-1-(3-fluoropyridine-2-yl)-5-(trifluoromethyl)-1H-pyrazole-4-carboxamide] are 500 to 5000 nM and under 50 nM.
Turning to `CC(C)n1c(=O)[nH]c2nccc(Oc3ccc(NC(=O)c4cnn(-c5ncccc5Cl)c4C(F)(F)F)cc3F)c21` [Example 10, 1-(3-chloropyridine-2-yl)-N-(3-fluoro-4-((1-isopropyl-2-oxo-2,3-dihydro-1H-imidazo[4,5-b]pyridine-7-yl)oxy)phenyl)-5-(trifluoromethyl)-1H-pyrazole-4-carboxamide], the figures for the 50% inhibitory concentration (IC50) in assay [1] and in assay [2] were 500 to 5000 nM and under 50 nM, respectively.
For `CC(C)n1c(=O)[nH]c2nccc(Oc3ccc(NC(=O)c4cnn(-c5cc(F)ccn5)c4C(F)(F)F)cc3F)c21` [Example 38, N-(3-fluoro-4-((1-isopropyl-2-oxo-2,3-dihydro-1H-imidazo[4,5-b]pyridine-7-yl)oxy)phenyl)-1-(4-fluoropyridine-2-yl)-5-(trifluoromethyl)-1H-pyrazole-4-carboxamide], in that order: over 5000 nM and under 50 nM.
On the same counts, the results for `CC(C)n1c(=O)[nH]c2nccc(Oc3ccc(NC(=O)c4cnn(-c5cc(Cl)ccn5)c4C(F)(F)F)cc3F)c21` [Example 15, 1-(4-chloropyridine-2-yl)-N-(3-fluoro-4-((1-isopropyl-2-oxo-2,3-dihydro-1H-imidazo[4,5-b]pyridine-7-yl)oxy)phenyl)-5-(trifluoromethyl)-1H-pyrazole-4-carboxamide] are over 5000 nM and under 50 nM.
For `CC(C)n1c(=O)[nH]c2nccc(Oc3ccc(NC(=O)c4cnn(-c5ccccn5)c4C(F)(F)F)cc3F)c21` [Example 3, N-(3-fluoro-4-((1-isopropyl-2-oxo-2,3-dihydro-1H-imidazo[4,5-b]pyridine-7-yl)oxy)phenyl)-1-(pyridine-2-yl)-5-(trifluoromethyl)-1H-pyrazole-4-carboxamide], in that order: over 5000 nM and under 50 nM.
`CC(C)n1c(=O)[nH]c2nccc(Oc3ccc(NC(=O)c4cnn(-c5ncccc5F)c4C(F)(F)F)cc3F)c21` [Example 7, N-(3-fluoro-4-((1-isopropyl-2-oxo-2,3-dihydro-1H-imidazo[4,5-b]pyridine-7-yl)oxy)phenyl)-1-(3-fluoropyridine-2-yl)-5-(trifluoromethyl)-1H-pyrazole-4-carboxamide]: the IC50 in assay [1] was 500 to 5000 nM; in assay [2], under 50 nM.
For `CCc1c(C(=O)Nc2ccc(Oc3ccnc4[nH]c(=O)[nH]c34)c(F)c2)cnn1-c1cncnc1` [Example 1, 5-ethyl-N-(3-fluoro-4-((2-oxo-2,3-dihydro-1H-imidazo[4,5-b]pyridine-7-yl)oxy)phenyl)-1-(pyrimidine-5-yl)-1H-pyrazole-4-carboxamide], in that order: over 5000 nM and over 5000 nM.
On the same counts, the results for `CC(C)n1c(=O)[nH]c2nccc(Oc3ccc(NC(=O)c4cnn(-c5ncccn5)c4C(F)(F)F)cc3F)c21` [Example 25, N-(3-fluoro-4-((1-isopropyl-2-oxo-2,3-dihydro-1H-imidazo[4,5-b]pyridine-7-yl)oxy)phenyl)-1-(pyrimidine-2-yl)-5-(trifluoromethyl)-1H-pyrazole-4-carboxamide] are 500 to 5000 nM and under 50 nM.
